Each compound was assayed against T1, Aurora A kinase (Homo sapiens, UniProt O14965) (assay: IC50 determination for inhibitors of Aurora A (ELISA-type kinase assay)). Settings: GST-Histone H3 substrate, mutant Aurora A kinase, 30 μM ATP, 40 minutes, read-out: IC50 Aurora A kinase inhibition.
T1 sequence (O14965 1-403): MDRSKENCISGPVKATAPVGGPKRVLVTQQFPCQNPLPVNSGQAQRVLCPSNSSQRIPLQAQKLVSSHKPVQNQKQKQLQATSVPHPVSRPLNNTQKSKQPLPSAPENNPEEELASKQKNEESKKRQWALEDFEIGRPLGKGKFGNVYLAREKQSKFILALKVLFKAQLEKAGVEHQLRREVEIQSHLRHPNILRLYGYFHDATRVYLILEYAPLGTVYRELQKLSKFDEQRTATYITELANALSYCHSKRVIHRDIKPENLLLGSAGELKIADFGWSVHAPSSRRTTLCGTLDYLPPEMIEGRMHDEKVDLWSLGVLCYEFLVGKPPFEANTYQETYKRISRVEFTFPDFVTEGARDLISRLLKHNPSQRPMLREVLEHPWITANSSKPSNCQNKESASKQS
Assay type: biochemical
Protocol: Aurora A is a serine threonine kinase involved in spindle assembly and chromosome segregation. The assay is a typically ELISA-type assay where substrate (GST-Histone H3) is coupled to the assay-plate and is phosphorylated by the kinase. Phosphorylation is detected by a mouse anti-Phosphopeptid mAb and an HRP-labeled anti-mouse pAb. The assay is validated for IC50-determination.
Kinase activities were measured by Enzyme-Linked Immunosorbent Assay (ELISA): Maxisorp 384-well plates (Nunc) were coated with recombinant fusion protein comprising residues 1-15 of HistoneH3 fused to the N-terminus of Glutathione-S-Transferase. Plates were then blocked with a solution of 1 mg/mL I-block (a highly purified form of casein, Tropix cat. no. T2015) in phosphate-buffered saline. Kinase reactions were carried out in the wells of the ELISA plate by combining an appropriate amount of mutant Aurora A kinase with test compound and 30 μM ATP. The reaction buffer was 10× Kinase Buffer (Cell Signaling cat. no. 9802) supplemented with 1 μg/mL I-block. Reactions were stopped after 40 minutes by addition of 25 mM EDTA. After washing, substrate phosphorylation was detected by addition of anti-phospho-Histone H3 (Ser 10) 6G3 mAb (Cell Signaling cat. no. 9706) and sheep anti-mouse pAb-HRP (Amersham cat# NA931V), followed by colorimetric development with TMB (3,3′,5,5′-tetramethylbenzidine from Kirkegaard & Perry Laboratories). After readout of the adsorbance, IC50 values were calculated using a non-linear curve fit (XLfit software (ID Business Solution Ltd., Guilford, Surrey, UK)).

| Structure (SMILES) | IC50 [nM] |
| --- | --- |
| CCN1C(=O)C(C)(C)c2cc3[nH]c(-c4n[nH]c(C)c4NCc4ccccc4)nc3cc21 [Example G-2, 2-(4-Benzylamino-5-methyl-1H-pyrazol-3-yl)-5-ethyl-7,7-dimethyl-5,7-dihydro-1H-imidazo[4,5-f]indol-6-one] | 32 |
| CCN(CC)C(=O)Nc1c[nH]nc1-c1nc2cc3c(cc2[nH]1)C(C)(C)C(=O)N3CC [Example E-8, 1,1-Diethyl-3-[3-(5-ethyl-7,7-dimethyl-6-oxo-1,5,6,7-tetrahydro-imidazo[4,5-f]indol-2-yl)-1H-pyrazol-4-yl]-urea] | 1 |
| CCN1C(=O)C(C)(C)c2cc3nc(-c4n[nH]cc4NS(C)(=O)=O)[nH]c3cc21 [Example H-2, N-[3-(5-Ethyl-7,7-dimethyl-6-oxo-3,5,6,7-tetrahydro-imidazo[4,5-f]indol-2-yl)-1H-pyrazol-4-yl]-methanesulfonamide] | 24 |
| CCN1C(=O)C(C)(C)c2cc3[nH]c(-c4n[nH]cc4NC(=O)CC(C)C)nc3cc21 [Example B-20, N-[3-(5-Ethyl-7,7-dimethyl-6-oxo-1,5,6,7-tetrahydro-imidazo[4,5-f]indol-2-yl)-1H-pyrazol-4-yl]-3-methyl-butyramide] | 2 |
| CCN1C(=O)C(C)(C)c2cc3[nH]c(-c4n[nH]cc4NC(=O)c4cnccn4)nc3cc21 [Example C-11, Pyrazine-2-carboxylic acid[3-(5-ethyl-7,7-dimethyl-6-oxo-1,5,6,7-tetrahydro-imidazo[4,5-f]indol-2-yl)-1H-pyrazol-4-yl]-amide] | 3 |
| CCN1C(=O)C(C)(C)c2cc3[nH]c(-c4n[nH]cc4NC(=O)OCc4ccccc4)nc3cc21 [Example E-5, [3-(5-Ethyl-7,7-dimethyl-6-oxo-1,5,6,7-tetrahydro-imidazo[4,5-f]indol-2-yl)-1H-pyrazol-4-yl]-carbamic acid benzyl ester] | 19 |
| CCN1C(=O)C(C)(C)c2cc3[nH]c(-c4n[nH]cc4NC(=O)C(F)(F)F)nc3cc21 [Example A-5, N-[3-(5-Ethyl-7,7-dimethyl-6-oxo-1,5,6,7-tetrahydro-imidazo[4,5-f]indol-2-yl)-1H-pyrazol-4-yl]-2,2,2-trifluoro-acetamide] | 29 |
| CCN1C(=O)C(C)(C)c2cc3[nH]c(-c4n[nH]cc4NC(=O)N4CCC(OC)CC4)nc3cc21 [Example F-6] | 11 |

These compounds were tested on HCT 116 cells (assay: Viability assay in HCT 116 cells (CellTiter-Glo)). Settings: 120 h; HCT 116 human colon carcinoma cells, 5 days incubation, ATP luminescence readout.
Assay type: cell-based
Protocol: A viability assay was performed using the CellTiter-Glo® Luminescent Cell Viability Assay (see Promega Corporation's Technical Bulletin No. 288, pp. 1-11 [revised 2/04] which is hereby incorporated by reference in its entirety). This assay is a homogeneous method of determining the number of viable cells in culture based on quantitation of the ATP present, an indicator of metabolically active cells. The assay is designed for use with multiwell formats, making it ideal for automated high-throughput screening (HTS), cell proliferation and cytotoxicity assays. The homogeneous assay procedure involves adding a single reagent (containing luciferase, luciferan substrate, and buffer) directly to cells cultured in serum-supplemented medium. Cell washing, removal of medium and multiple pipetting steps are not required. The system detects as few as 15 cells/well in a 384-well format in 10 minutes after adding reagent and mixing.
The homogeneous “add-mix-measure” format results in cell lysis and generation of a luminescent signal proportional to the amount of ATP present. The amount of ATP is directly proportional to the number of cells present in culture. The above-referenced assay generates a “glow-type” luminescent signal, produced by the luciferase reaction, which has a half-life generally greater than five hours, depending on cell type and medium used. The extended half-life eliminates the need to use reagent injectors and provides flexibility for continuous or batch mode processing of multiple plates. The unique homogeneous format avoids errors that may be introduced by other ATP measurement methods that require multiple steps.
HCT 116 cells (human colon carcinoma, ATCC-No. CCl-247) were cultivated in RPMI 1640 medium with GlutaMAX™ I (cell culture media that contains L-Alanyl-L-Glutamine [a stabilized a form/source of L-Glutamine] from Invitrogen, Cat-No. 61870-010), 2.5% Fetal Calf Serum (FCS, Sigma Cat-No. F4135 (FBS)); 100 Units/ml penicillin/100 μg/ml streptomycin (=Pen/Strep from Invitrogen Cat. No. 15140). For the assay the cells were seeded in 384 well plates, 1000 cells per well, in the same medium. The next day the test compounds were added in various concentrations ranging from 30 μM to 0.0015 μM (10 concentrations, 1:3 diluted). After 5 days the viability assay was done according to the instructions of the manufacturer. In brief: the cell-plate was equilibrated to room temperature for approximately 30 minutes and then reagent (containing luciferase, luciferan substrate, and buffer) was added. The contents were carefully mixed for 15 minutes to induce cell lysis. After 45 minutes the luminescent signal was measured in Victor 2, (scanning multiwell spectrophotometer, Wallac).
Medium: RPMI 1640 with cell culture media containing L-Alanyl-L-Glutamine [GlutaMAX™ I (Invitrogen, Cat-No. 61870)], 5% FCS (Sigma Cat.-No. F4135), Pen/Strep (Invitrogen, Cat No. 15140).
HCT116 (ATCC-No. CCl-247): 1000 cells in 60 μl per well of 384 well plate (Greiner 781098, μClear-plate white)
After seeding incubate plates 24 h at 37° C., 5% CO2
2nd. Day: Induction (Treatment with Compounds, 10 Concentrations):
In order to achieve a final concentration of 30 μM as highest concentration […] of 10 mM compound stock solution were added directly to […] media. Then step d) of the dilution procedure described below, was followed. […]

| Structure (SMILES) | IC50 [nM] |
| --- | --- |
| CCN1C(=O)C(C)(C)c2cc3[nH]c(-c4n[nH]cc4NC(=O)OC)nc3cc21 [Example E-6, [3-(5-Ethyl-7,7-dimethyl-6-oxo-1,5,6,7-tetrahydro-imidazo[4,5-f]indol-2-yl)-1H-pyrazol-4-yl]-carbamic acid methyl ester] | 378 |
| CCN1C(=O)C(C)(C)c2cc3[nH]c(-c4n[nH]cc4NC(C)=O)nc3cc21 [Example A-1, N-[3-(5-Ethyl-7,7-dimethyl-6-oxo-1,5,6,7-tetrahydro-imidazo[4,5-f]indol-2-yl)-1H-pyrazol-4-yl]-acetamide] | 311 |
| CCN1C(=O)C(C)(C)c2cc3[nH]c(-c4n[nH]cc4NC(=O)N(C)C)nc3cc21 [Example E-10, 3-[3-(5-Ethyl-7,7-dimethyl-6-oxo-1,5,6,7-tetrahydro-imidazo[4,5-f]indol-2-yl)-1H-pyrazol-4-yl]-1,1-dimethyl-urea] | 61 |
| CCN1C(=O)C(C)(C)c2cc3[nH]c(-c4n[nH]cc4NC(=O)COC)nc3cc21 [Example B-22, N-[3-(5-Ethyl-7,7-dimethyl-6-oxo-1,5,6,7-tetrahydro-imidazo[4,5-f]indol-2-yl)-1H-pyrazol-4-yl]-2-methoxy-acetamide] | 99 |
| CCN(CCN(C)C)C(=O)Nc1c[nH]nc1-c1nc2cc3c(cc2[nH]1)C(C)(C)C(=O)N3CC [Example F-4, 1-(2-Dimethylamino-ethyl)-1-ethyl-3-[3-(5-ethyl-7,7-dimethyl-6-oxo-1,5,6,7-tetrahydro-imidazo[4,5-f]indol-2-yl)-1H-pyrazol-4-yl]-urea] | 28 |
| CCN1C(=O)C(C)(C)c2cc3[nH]c(-c4n[nH]cc4NC(=O)c4cccnc4)nc3cc21 [Example B-3, N-[3-(5-Ethyl-7,7-dimethyl-6-oxo-1,5,6,7-tetrahydro-imidazo[4,5-f]indol-2-yl)-1H-pyrazol-4-yl]-nicotinamide] | 57 |

Same assay, conditions: HCT 116 human colon carcinoma cells, 5 days incubation, ATP luminescence readout

| Structure (SMILES) | IC50 [nM] |
| --- | --- |
| CCN1C(=O)C(C)(C)c2cc3[nH]c(-c4n[nH]cc4NC(=O)c4ccc5c(c4)OCCO5)nc3cc21 [Example C-13, 2,3-Dihydro-benzo[1,4]dioxine-6-carboxylic acid[3-(5-ethyl-7,7-dimethyl-6-oxo-1,5,6,7-tetrahydro-imidazo[4,5-f]indol-2-yl)-1H-pyrazol-4-yl]-amide] | 63 |

— patent US7462639B2, “Aminopyrazole derivatives” (Hoffmann-La Roche Inc., priority 2005, dated 2008)
